Data published in US6077845A, “Acridin derivatives” (Gruenenthal GmbH, priority 1998, dated 2000).
Where a name gives a salt, the structure may show the parent alone.

Target: T1, δ-opiate receptor (Rattus norvegicus, UniProt P33533)
T1 construct: from tissue; host or cells: rat brain (male Wistar) without cerebellum and medulla oblongata, membrane homogenate
Assay: δ-Opiate receptor binding ([3H]-2-D-Ala-deltorphin II displacement, rat brain membrane homogenate)
Parameters: species or system rat (male Wistar)
Details: 1 nmole/l [3H]-2-D-Ala-deltorphin II, 90 minutes at 37° C., pH 7.4, mean ± standard deviation of three independent tests, Ki from IC50 by Cheng-Prussoff
Experimental: δ-Opiate receptor binding investigations
Tests to determine the affinity of the compounds of formula I according to the invention for δ-opiate receptors were performed on meninx homogenates (homogenates of rat's brain, without the cerebellum and medulla oblongata, taken from male Wistar rats).
For this purpose, freshly prepared rat brains were each homogenised, while being cooled in ice, in 50 mmoles/l Tris-HCl (pH 7.4) and were centrifuged for 10 minutes at 5000 g and […]. After decantation and after rejecting the supernatant liquor, followed by renewed take-up and homogenization of the membrane sediment in 50 mmoles/l Tris-HCl (pH 7.4), the homogenate was subsequently centrifuged for 20 minutes at 20,000 g and […]. This washing step was repeated again. Thereafter, the supernatant liquor was decanted and the membrane sediment was homogenized in cold 50 mmoles/l Tris-HCl, 20% glycerol (w/v), 0.01% bacitracin (w/v) (pH 7.4) and aliquots thereof were frozen until required for testing. For the receptor binding tests, the aliquots were thawed and were diluted 1:10 with the binding test buffer. A solution of […] MgCl2 (pH 7.4), supplemented by 0.1 (w/v) bovine serum albumin, was used as the buffer in the binding tests; 1 nmole/l [^3 H]-2-D-Ala-deltorphin II was used as the radioactive ligand. The proportion of non-specific binding was determined in the presence of 10 μmoles/l naloxon.
In further batches, the compounds according to the invention were added in a series of concentrations and the displacement of the radioactive ligand from its specific binding site was determined. The batches concerned, which were each tested in triplicate, were incubated for 90 minutes at 37° C. and were subsequently harvested in order to determine the radioactive ligand which was bound to the membrane homogenate by filtration through a glass fibre filter (GF/B). The glass fiber filter discs were dried, and the radioactivity thereof was measured in a β-counter after adding a scintillator.
The affinity of the compounds according to the invention for the δ-opiate receptor was calculated as the IC50 value according to the law of mass action, by means of nonlinear regression. Ki values were calculated from the IC50 values using the Cheng-Prussoff equation. The Ki values in Table 1 are given as the mean value±standard deviation of three tests which were independent of each other.

T1 sequence (P33533 whole entry): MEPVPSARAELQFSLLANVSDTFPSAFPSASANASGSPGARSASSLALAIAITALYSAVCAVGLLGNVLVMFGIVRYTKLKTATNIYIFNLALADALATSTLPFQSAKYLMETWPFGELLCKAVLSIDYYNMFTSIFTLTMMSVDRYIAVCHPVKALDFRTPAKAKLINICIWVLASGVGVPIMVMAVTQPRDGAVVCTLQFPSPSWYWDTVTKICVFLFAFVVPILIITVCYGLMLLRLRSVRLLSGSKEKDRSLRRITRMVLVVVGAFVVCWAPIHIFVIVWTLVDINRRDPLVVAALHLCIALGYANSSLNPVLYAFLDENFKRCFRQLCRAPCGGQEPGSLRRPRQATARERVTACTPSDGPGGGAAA

**Q.** How did the Ki turn out when `CN(C)CC1=C(c2cccc(O)c2)c2cc3ccccc3nc2CC1(C)C` [3-(2-dimethylaminomethyl-3,3-dimethyl-3,4-dihydro-acridin-1-yl)-phenol hydrochloride] was run?
**A.** 29 nM

**Q.** How did the Ki turn out when `COc1cccc([C@@H]2c3cc4ccccc4nc3CC[C@H]2CN(C)C)c1` (racemic) [rac-trans-[1-(3-methoxy-phenyl)-1,2,3,4-tetrahydro-acridin-2-yl-methyl]-dimethylamine hydrochloride] was run?
**A.** 127 nM

**Q.** For `COc1cccc(C2=C(CN(C)C)CCc3nc4ccccc4cc32)c1` [[1-(3-methoxy-phenyl)-3,4-dihydro-acridin-2-yl-methyl]-dimethylamine hydrochloride], which Ki is on record?
**A.** 133 nM

**Q.** With `CN(C)C[C@H]1CCc2nc3ccccc3cc2[C@@H]1c1cccc(O)c1` (relative stereo) [rac-trans-[3-(2-dimethylaminomethyl-1,2,3,4-tetrahydro-acridin-1-yl)]-phenol hydrochloride] as the compound, how does the Ki read?
**A.** 4.17 nM

**Q.** How did the Ki turn out when `CN(C)CC1=C(c2cccc(O)c2)c2cc3ccccc3nc2CC1` [[3-(2-dimethylaminomethyl-3,4-dihydro-acridin-1-yl)]-phenol hydrochloride] was run?
**A.** 3.84 nM
